What was measured:
Assay type in all cases: cell-based
H358 = assay: Combinatorial activity in LUAD cell line H358; conditions: Homo sapiens, NCI-H358; H358, KRAS G12C; single agent; read-out: (nM) s.a.
Description: (§1) Combinatorial activity of PF-07104091 and PF-07220060 was assessed in LUADs as single agents (s.a.) or in combination.

H23 = assay: Combinatorial activity in LUAD cell line H23; conditions: Homo sapiens, NCI-H23; H23, KRAS G12C; single agent; read-out: (nM) s.a.
Description: as §1

H1373 = assay: Combinatorial activity in LUAD cell line H1373; conditions: Homo sapiens, NCI-H1373; H1373, KRAS G12C; single agent; read-out: (nM) s.a.
Description: as §1

HCC44 (RB-) = assay: Combinatorial activity in LUAD cell line HCC44; conditions: Homo sapiens, KRAS G12C, single agent, read-out: (nM) s.a.
Description: as §1

H2030 = assay: Combinatorial activity in LUAD cell line H2030; conditions: Homo sapiens, NCI-H2030; H2030, KRAS G12C; single agent; read-out: (nM) s.a.
Description: as §1

SMILES: CC(C)n1c(C(C)(C)O)nc2c(F)cc(-c3nc(N[C@@H]4CCOC[C@H]4O)ncc3Cl)cc21 [PF-07220060, 1,5-anhydro-3-({5-chloro-4-[4-fluoro-2-(2-hydroxypropan-2-yl)-1-(propan-2-yl)-1H-benzimidazol-6-yl]pyrimidin-2-yl}amino)-2,3-dideoxy-D-threo-pentitol]
- IC50 (H358): 120 nM
- IC50 (H23): 285 nM
- IC50 (H1373): 470 nM
- IC50 (HCC44 (RB-)): > 1000 nM
- IC50 (H2030): 950 nM

Source: patent US20250041277A1, “METHODS AND DOSING REGIMENS COMPRISING A CDK2 INHIBITOR AND A CDK4 INHIBITOR FOR TREATING CANCER” (PFIZER INC., priority 2021, published 2025)
